Experiments:
Assay type in all cases: in vivo
[1] = tested on: Amaranthus palmeri (AMAPA); assay: Pre-Emergence Test (herbicidal, glasshouse pots); details: evaluated after 13 days, five-point scale
[2] = tested on: Amaranthus retoflexus (AMARE); assay: Pre-Emergence Test (herbicidal, glasshouse pots); details: evaluated after 13 days, five-point scale
Zea mays (ZEAMX) [3] = assay: Pre-Emergence Test (herbicidal, glasshouse pots); details: evaluated after 13 days, five-point scale
[4] = tested on: Ipomoea hederacea (IPOHE); assay: Pre-Emergence Test (herbicidal, glasshouse pots); details: evaluated after 13 days, five-point scale
[5] = tested on: Echinochloa crus-galli (ECHCG); assay: Pre-Emergence Test (herbicidal, glasshouse pots); details: evaluated after 13 days, five-point scale
[6] = tested on: Amaranthus palmeri (AMAPA); assay: Post-Emergence Test (herbicidal, glasshouse pots); details: evaluated after 13 days
Procedure, shortened: (§1)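 Seeds were sown in standard soil in pots, sprayed at the stated g/ha with an acetone/water (50:50) solution containing 0.5% Tween 20, and kept in a glasshouse (24° C./16° C. day/night, 14 hours light, 65% humidity). Percentage plant damage was scored 13 days later on a five-point scale.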

Setaria faberi (SETFA) [7] = assay: Post-Emergence Test (herbicidal, glasshouse pots); details: evaluated after 13 days
Procedure, shortened: as §1

[8] = tested on: Echinochloa crus-galli (ECHCG); assay: Post-Emergence Test (herbicidal, glasshouse pots); details: evaluated after 13 days
Procedure, shortened: as §1

[9] = tested on: Ipomoea hederacea (IPOHE); assay: Post-Emergence Test (herbicidal, glasshouse pots); details: evaluated after 13 days
Procedure, shortened: as §1

Zea mays (ZEAMX) [10] = assay: Post-Emergence Test (herbicidal, glasshouse pots); details: evaluated after 13 days
Procedure, shortened: as §1

[11] = tested on: Amaranthus retoflexus (AMARE); assay: Post-Emergence Test (herbicidal, glasshouse pots); details: evaluated after 13 days
Procedure, shortened: as §1

Setaria faberi (SETFA) [12] = assay: Pre-Emergence Test (herbicidal, glasshouse pots); details: evaluated after 13 days, five-point scale

Structure (SMILES) | percentage damage caused to the plant, AMAPA ([1]; rate 250 g/ha) | percentage damage caused to the plant, AMARE ([2]; rate 250 g/ha) | percentage damage caused to the plant, ZEAMX (Zea mays (ZEAMX) [3]; rate 250 g/ha) | percentage damage caused to the plant, IPHOE ([4]; rate 250 g/ha) | percentage damage caused to the plant, ECHCG ([5]; rate 250 g/ha) | Post-Emergence Test AMAPA percentage damage (five-point scale) ([6]; rate 250 g/ha) | Post-Emergence Test SETFA percentage damage (five-point scale) (Setaria faberi (SETFA) [7]; rate 250 g/ha) | Post-Emergence Test ECHCG percentage damage (five-point scale) ([8]; rate 250 g/ha) | Post-Emergence Test IPHOE percentage damage (five-point scale) ([9]; rate 250 g/ha) | Post-Emergence Test ZEAMX percentage damage (five-point scale) (Zea mays (ZEAMX) [10]; rate 250 g/ha) | Post-Emergence Test AMARE percentage damage (five-point scale) ([11]; rate 250 g/ha) | percentage damage caused to the plant, SETFA (Setaria faberi (SETFA) [12]; rate 250 g/ha) | further results
CCn1c(Oc2ccc(C(F)(F)F)cc2)cc(=O)c(C(=O)O)c1-c1ccc(Cl)c(Cl)c1 [Compound 27, 2-(3,4-dichlorophenyl)-1-ethyl-4-oxo-6-[4-(trifluoromethyl)phenoxy]pyridine-3-carboxylic acid] | 1 (1=0-20%) | 1 (1=0-20%) | 0 | 0 | 1 (1=0-20%) | 4 (4=61-80%) | 5 (5=81-100%) | 4 (4=61-80%) | 4 (4=61-80%) | 2 (2=21-40%) | 4 (4=61-80%) | 4 (4=61-80%) | –
CCn1c(Oc2ccc(F)c(F)c2)cc(=O)c(C(=O)O)c1-c1ccc(Cl)c(Cl)c1 [Compound 28, 2-(3,4-dichlorophenyl)-6-(3,4-difluorophenoxy)-1-ethyl-4-oxo-pyridine-3-carboxylic acid] | – | – | – | – | – | – | – | – | – | – | – | – | percentage damage caused to the plant, AMAPA ([1]; rate 1000 g/ha): 4 (4=61-80%); percentage damage caused to the plant, AMARE ([2]; rate 1000 g/ha): 5 (5=81-100%); percentage damage caused to the plant, ZEAMX (Zea mays (ZEAMX) [3]; rate 1000 g/ha): 4 (4=61-80%); percentage damage caused to the plant, IPHOE ([4]; rate 1000 g/ha): 4 (4=61-80%); percentage damage caused to the plant, ECHCG ([5]; rate 1000 g/ha): 4 (4=61-80%); Post-Emergence Test AMAPA percentage damage (five-point scale) ([6]; rate 1000 g/ha): 4 (4=61-80%); Post-Emergence Test SETFA percentage damage (five-point scale) (Setaria faberi (SETFA) [7]; rate 1000 g/ha): 4 (4=61-80%); Post-Emergence Test ECHCG percentage damage (five-point scale) ([8]; rate 1000 g/ha): 4 (4=61-80%); Post-Emergence Test IPHOE percentage damage (five-point scale) ([9]; rate 1000 g/ha): 3 (3=41-60%); Post-Emergence Test ZEAMX percentage damage (five-point scale) (Zea mays (ZEAMX) [10]; rate 1000 g/ha): 4 (4=61-80%); Post-Emergence Test AMARE percentage damage (five-point scale) ([11]; rate 1000 g/ha): 4 (4=61-80%); percentage damage caused to the plant, SETFA (Setaria faberi (SETFA) [12]; rate 1000 g/ha): 5 (5=81-100%)
CCn1c(Oc2cc(F)ccc2Cl)cc(=O)c(C(=O)O)c1-c1ccc(Cl)c(Cl)c1 [Compound 35, 6-(2-chloro-5-fluoro-phenoxy)-2-(3,4-dichlorophenyl)-1-ethyl-4-oxo-pyridine-3-carboxylic acid] | – | – | – | – | – | – | – | – | – | – | – | – | percentage damage caused to the plant, AMAPA ([1]; rate 1000 g/ha): 0; percentage damage caused to the plant, AMARE ([2]; rate 1000 g/ha): 1 (1=0-20%); percentage damage caused to the plant, ZEAMX (Zea mays (ZEAMX) [3]; rate 1000 g/ha): 1 (1=0-20%); percentage damage caused to the plant, IPHOE ([4]; rate 1000 g/ha): 0; percentage damage caused to the plant, ECHCG ([5]; rate 1000 g/ha): 5 (5=81-100%); Post-Emergence Test AMAPA percentage damage (five-point scale) ([6]; rate 1000 g/ha): 3 (3=41-60%); Post-Emergence Test SETFA percentage damage (five-point scale) (Setaria faberi (SETFA) [7]; rate 1000 g/ha): 4 (4=61-80%); Post-Emergence Test ECHCG percentage damage (five-point scale) ([8]; rate 1000 g/ha): 4 (4=61-80%); Post-Emergence Test IPHOE percentage damage (five-point scale) ([9]; rate 1000 g/ha): 2 (2=21-40%); Post-Emergence Test ZEAMX percentage damage (five-point scale) (Zea mays (ZEAMX) [10]; rate 1000 g/ha): 2 (2=21-40%); Post-Emergence Test AMARE percentage damage (five-point scale) ([11]; rate 1000 g/ha): 3 (3=41-60%); percentage damage caused to the plant, SETFA (Setaria faberi (SETFA) [12]; rate 1000 g/ha): 5 (5=81-100%)
CCn1c(Oc2ccn(C)n2)cc(=O)c(C(=O)O)c1-c1ccc(Cl)c(Cl)c1 [Compound 37, 2-(3,4-dichlorophenyl)-1-ethyl-6-(1-methylpyrazol-3-yl)oxo-4-oxo-pyridine-3-carboxylic acid] | – | – | – | – | – | – | – | – | – | – | – | – | percentage damage caused to the plant, AMAPA ([1]; rate 62.5 g/ha): 2 (2=21-40%); percentage damage caused to the plant, AMARE ([2]; rate 62.5 g/ha): 2 (2=21-40%); percentage damage caused to the plant, ZEAMX (Zea mays (ZEAMX) [3]; rate 62.5 g/ha): 3 (3=41-60%); percentage damage caused to the plant, IPHOE ([4]; rate 62.5 g/ha): 3 (3=41-60%); percentage damage caused to the plant, ECHCG ([5]; rate 62.5 g/ha): 4 (4=61-80%); Post-Emergence Test AMAPA percentage damage (five-point scale) ([6]; rate 62.5 g/ha): 4 (4=61-80%); Post-Emergence Test SETFA percentage damage (five-point scale) (Setaria faberi (SETFA) [7]; rate 62.5 g/ha): 4 (4=61-80%); Post-Emergence Test ECHCG percentage damage (five-point scale) ([8]; rate 62.5 g/ha): 4 (4=61-80%); Post-Emergence Test IPHOE percentage damage (five-point scale) ([9]; rate 62.5 g/ha): 3 (3=41-60%); Post-Emergence Test ZEAMX percentage damage (five-point scale) (Zea mays (ZEAMX) [10]; rate 62.5 g/ha): 4 (4=61-80%); Post-Emergence Test AMARE percentage damage (five-point scale) ([11]; rate 62.5 g/ha): 4 (4=61-80%); percentage damage caused to the plant, SETFA (Setaria faberi (SETFA) [12]; rate 62.5 g/ha): 5 (5=81-100%)
CCn1c(Oc2ccc(Cl)cn2)cc(=O)c(C(=O)O)c1-c1ccc(Cl)c(Cl)c1 [Compound 38, 6-[(5-chloro-2-pyridyl)oxy]-2-(3,4-dichlorophenyl)-1-ethyl-4-oxo-pyridine-3-carboxylic acid] | 2 (2=21-40%) | 3 (3=41-60%) | 4 (4=61-80%) | 4 (4=61-80%) | 5 (5=81-100%) | 4 (4=61-80%) | 4 (4=61-80%) | 3 (3=41-60%) | 4 (4=61-80%) | 4 (4=61-80%) | 4 (4=61-80%) | 5 (5=81-100%) | –
CCc1cc(Oc2cc(=O)c(C(=O)O)c(-c3ccc(Cl)c(Cl)c3)n2CC)no1 [Compound 39, 2-(3,4-dichlorophenyl)-1-ethyl-6-(5-ethylisoxazol-3-yl)oxy-4-oxo-pyridine-3-carboxylic acid] | 1 (1=0-20%) | 1 (1=0-20%) | 0 | 1 (1=0-20%) | 1 (1=0-20%) | 1 (1=0-20%) | 1 (1=0-20%) | 1 (1=0-20%) | 2 (2=21-40%) | 0 | 1 (1=0-20%) | 1 (1=0-20%) | –
CCn1c(Oc2ccc(S(C)(=O)=O)cc2)cc(=O)c(C(=O)O)c1-c1ccc(Cl)c(Cl)c1 [Compound 40, 2-(3,4-dichlorophenyl)-1-ethyl-6-(4-methylsulfonyl-phenoxy)-4-oxo-pyridine-3-carboxylic acid] | 1 (1=0-20%) | 1 (1=0-20%) | 0 | 3 (3=41-60%) | 0 | 2 (2=21-40%) | 2 (2=21-40%) | 1 (1=0-20%) | 4 (4=61-80%) | 1 (1=0-20%) | 2 (2=21-40%) | 2 (2=21-40%) | –
CCn1c(Oc2ccc(C)c(F)c2)cc(=O)c(C(=O)O)c1-c1ccc(Cl)c(Cl)c1 [Compound 41, 2-(3,4-dichlorophenyl)-1-ethyl-6-(3-fluoro-4-methyl-phenoxy)-4-oxo-pyridine-3-carboxylic acid] | 0 | 1 (1=0-20%) | 0 | 2 (2=21-40%) | 0 | 2 (2=21-40%) | 1 (1=0-20%) | 1 (1=0-20%) | 3 (3=41-60%) | 0 | 2 (2=21-40%) | 0 | –
CCn1c(Oc2ccc3nccnc3c2)cc(=O)c(C(=O)O)c1-c1ccc(Cl)c(Cl)c1 [Compound 42, 2-(3,4-dichlorophenyl)-1-ethyl-4-oxo-6-quinoxalin-6-yloxy-pyridine-3-carboxylic acid] | 2 (2=21-40%) | 2 (2=21-40%) | 0 | 2 (2=21-40%) | 1 (1=0-20%) | 1 (1=0-20%) | 1 (1=0-20%) | 1 (1=0-20%) | 3 (3=41-60%) | 1 (1=0-20%) | 1 (1=0-20%) | 1 (1=0-20%) | –
CCn1c(Oc2cnsn2)cc(=O)c(C(=O)O)c1-c1ccc(Cl)c(Cl)c1 [Compound 43, 2-(3,4-dichlorophenyl)-1-ethyl-4-oxo-6-(1,2,5-thiadiazol-3-yloxy)pyridine-3-carboxylic acid] | 0 | 1 (1=0-20%) | 0 | 3 (3=41-60%) | 1 (1=0-20%) | 2 (2=21-40%) | 2 (2=21-40%) | 2 (2=21-40%) | 4 (4=61-80%) | 0 | 1 (1=0-20%) | 1 (1=0-20%) | –

— patent US20250324971A1, “HERBICIDAL DERIVATIVES” (SYNGENTA CROP PROTECTION AG, priority 2022, published 2025)
